Experimental data published in patent US11440886B2, “Anti-inflammatory compound, and preparation and use thereof” (E-Nitiate Biopharmaceuticals (Hangzhou) Co., Ltd., priority 2018, dated 2022).

What was measured:
PDE4 = conditions: background statement; cited from earlier work
cytokine release = conditions: background statement; cited from earlier work
eczema = conditions: patients with eczema; cited from earlier work
[1] = target: human recombinant PDE4B1 enzyme (Homo sapiens (Human), UniProt Q07343); assay: Inhibition of PDE4B1 activity by cAMP HTRF assay; type: biochemical; conditions: human recombinant PDE4B1, cAMP 40 nM, pH 7.4
Outline: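 Recombinant human PDE4B1 (4.8 U) was preincubated 10 min with compound in HBSS/HEPES/MgCl2/BSA, pH 7.4, then 40 nM cAMP was added for 60 min at RT. Remaining cAMP was read by HTRF after IBMX stop; IC50 from eight concentrations in duplicate, repeated twice.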

[2] = test system: human peripheral blood mononuclear cells (PBMCs); assay: Inhibition of LPS-induced TNFα release by peripheral blood mononuclear cells (PBMCs); type: cell-based; conditions: PBMC, TNFα level in supernatant, LPS 1 ug/mL, 24 hours, Luminex
Procedure: Inhibition of the compounds on proinflammatory cytokine release by peripheral blood mononuclear cells (PBMCs)
The effect of the compounds on the release characteristics of TNFa cytokines in frozen human peripheral blood mononuclear cells (PBMCs) was determined.
Fresh human PBMCs were isolated, and suspended in a fresh medium. The PBMC medium (CM) is RPMI1640 containing 10% FBS, 1% PBS, and 2 mM L-glutamine. The cells were plated at a density of 2*10^5 cells/well (100 ul). The test compound was dissolved in DMSO to form a 10 mM sample (DMSO, 100%). The compound was diluted with PBMC medium to the required concentrations. The sample (50 uL) was incubated for 1 hr with cells at 37° C., 5% CO2, after which the inducer (LPS, 1 ug/mL) was added. The inducer+vehicle (LPS+0.05% DMSO) was used as a control in this experiment. The vehicle without inducer was used as a negative control. Crisaborole was used as a positive control. After 24 hours of incubation, the supernatant was extracted and stored at −80° C. The supernatant was thawed and the TNFα level in the supernatant was measured by Luminex4-plex assay.

Sequence of human recombinant PDE4B1 enzyme (Q07343 whole entry): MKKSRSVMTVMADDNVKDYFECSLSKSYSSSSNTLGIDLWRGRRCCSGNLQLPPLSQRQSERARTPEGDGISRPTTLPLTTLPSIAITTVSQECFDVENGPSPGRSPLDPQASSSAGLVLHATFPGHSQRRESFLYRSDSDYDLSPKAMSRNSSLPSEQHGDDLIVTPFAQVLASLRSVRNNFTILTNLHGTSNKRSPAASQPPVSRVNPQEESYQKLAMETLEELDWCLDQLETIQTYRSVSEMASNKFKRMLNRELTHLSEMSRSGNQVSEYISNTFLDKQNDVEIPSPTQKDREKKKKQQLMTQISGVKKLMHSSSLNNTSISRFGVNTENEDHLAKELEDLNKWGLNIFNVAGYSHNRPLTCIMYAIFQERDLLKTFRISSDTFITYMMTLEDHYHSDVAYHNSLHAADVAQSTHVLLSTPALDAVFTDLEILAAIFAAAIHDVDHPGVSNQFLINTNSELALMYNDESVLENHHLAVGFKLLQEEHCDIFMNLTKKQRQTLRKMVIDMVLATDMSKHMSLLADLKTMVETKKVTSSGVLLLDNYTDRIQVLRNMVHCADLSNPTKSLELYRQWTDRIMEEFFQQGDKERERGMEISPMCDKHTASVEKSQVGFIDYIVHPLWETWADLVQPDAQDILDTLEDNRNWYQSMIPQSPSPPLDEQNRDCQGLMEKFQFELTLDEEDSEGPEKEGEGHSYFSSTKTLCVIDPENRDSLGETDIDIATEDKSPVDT

Row | IC50 [1] | SMILES | EC50 [2] | further results
1 |  | N#Cc1ccc(Oc2ccc3c(c2)COB3O)cc1 [Crisaborole] |  | enzyme inhibition activity (PDE4): about 100 nM; cell activity inhibiting cytokine release (cytokine release): about 500 nM; clinical effect on eczema higher than that of the blank control (eczema): about 10%; proportion of patients who cannot benefit (eczema): about 50%
2 | 26.4 nM | COc1ccc(/C=C/n2c(C)cc(=O)cc2C)cc1OCCSC [Example 77, (E)-1-(3-methylthioethoxy-4-methoxystyryl)-2,6-dimethylpyridin-4(1H)-one] | 11 nM | 
3 | 7 nM | COc1ccc(/C=C/n2c(C)cc(=O)cc2C)cc1OC1CCSC1 (stereo not shown) [Example 80, (E)-1-((3-(tetrahydrothiophen-3-yl)oxy-4-methoxy)-styryl)-2,6-dimethylpyridin-4(1H)-one] | < 5 nM | 
4 | 2.8 nM | Cc1cc(=O)cc(C)n1/C=C/c1ccc(OC(F)F)c(OCC2CC2)c1 [Example 88, (E)-1-(3-(cyclopropylmethoxy)-4-(difluoromethoxy)styryl)-2,6-dimethylpyridin-4(1H)-one] | < 5 nM | 
5 | 138 nM | COC(=O)/C(=C\n1c(C)cc(=O)cc1C)c1ccc(OC)c(OCC2CC2)c1 [Example 112, (Z)-methyl 2-(3-cyclopropylmethoxy-4-methoxyphenyl)-3-(2,6-dimethyl-4-carbonylpyridin-1(4H)-yl)-acrylate] |  | 
6 | 170 nM | CCOC(=O)/C(=C\n1c(C)cc(=O)cc1C)c1ccc(OC)c(OCC2CC2)c1 [Example 113, (Z)-ethyl 2-(3-cyclopropylmethoxy-4-methoxyphenyl)-3-(2,6-dimethyl-4-carbonylpyridin-1(4H)-yl)-acrylate] |  | 
7 | 1.6 nM | CC#C/C(=C\n1c(C)cc(=O)cc1C)c1ccc(OC(F)F)c(OCC2CC2)c1 [Example 114, (Z)-1-(2-(3-cyclopropylmethoxy-4-difluoromethoxyphenyl)pent-1-en-3-yn-1-yl)-2,6-dimethylpyridin-4(1H)-one] |  | 
8 | 9.9 nM | COc1ccc(/C(C#N)=C/n2c(C)cc(=O)cc2C)cc1OC [Example 115] |  | 
9 | 3600 nM | COc1ccc(/C=C(\C(N)=O)n2c(C)cc(=O)cc2C)cc1OCC1CC1 [Example 117] |  | 
10 | 320 nM | COc1ccc(/C=C(\C(=O)N(C)C)n2c(C)cc(=O)cc2C)cc1OCC1CC1 [Example 118] |  | 
